Test results: PubChem BioAssay AID248 (DTP/NCI, 2004)
Values joined by “and” are separate entries in the source; they are usually repeats but may differ in a detail not shown here. Equal entries are not always repeated. Toxic doses and inconclusive results are not listed. No stated cut-off is given here; in the data, active means T/C of 150% or more; inactive means T/C below 125%.

System: L1210 leukemia ip in BDF1 mice, survival T/C
Assay: NCI In Vivo Anticancer Drug Screen. Data for tumor model L1210 Leukemia (intraperitoneal) in B6D2F1 (BDF1) mice
Conditions: higher = longer survival
Method in brief: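 Survival endpoint. Drug-treated group vs vehicle group, expressed as T divided by C. Tumor passaged by transplantation.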

[1] = endpoint: mean survival time, dose: 100.0 mg/kg/injection, schedule: Q01DX009 (ip), vehicle: water
[2] = endpoint: mean survival time, dose: 100.0 mg/kg/injection, schedule: Q04DX003 (ip), vehicle: water
[3] = endpoint: mean survival time, dose: 200.0 mg/kg/injection, schedule: Q01DX009 (ip), vehicle: water
[4] = endpoint: mean survival time, dose: 200.0 mg/kg/injection, schedule: Q04DX003 (ip), vehicle: water
[5] = endpoint: mean survival time, dose: 400.0 mg/kg/injection, schedule: Q04DX003 (ip), vehicle: water
[6] = endpoint: mean survival time, dose: 100.0 mg/kg/injection, schedule: Q01DX001 (ip), vehicle: saline
[7] = endpoint: mean survival time, dose: 200.0 mg/kg/injection, schedule: Q01DX001 (ip), vehicle: saline
[8] = endpoint: mean survival time, dose: 400.0 mg/kg/injection, schedule: Q01DX001 (ip), vehicle: saline
[9] = endpoint: mean survival time, dose: 100.0 mg/kg/injection, schedule: Q04DX003 (ip), vehicle: saline
[10] = endpoint: mean survival time, dose: 200.0 mg/kg/injection, schedule: Q04DX003 (ip), vehicle: saline
[11] = endpoint: mean survival time, dose: 400.0 mg/kg/injection, schedule: Q04DX003 (ip), vehicle: saline
[12] = endpoint: mean survival time, dose: 50.0 mg/kg/injection, schedule: Q01DX001 (ip), vehicle: saline
[13] = endpoint: mean survival time, dose: 100.0 mg/kg/injection, schedule: Q01DX009 (ip), vehicle: Klucel (hydroxypropylcellulose) (HPC)
[14] = endpoint: mean survival time, dose: 100.0 mg/kg/injection, schedule: Q04DX003 (ip), vehicle: Klucel (hydroxypropylcellulose) (HPC)
[15] = endpoint: mean survival time, dose: 200.0 mg/kg/injection, schedule: Q01DX009 (ip), vehicle: Klucel (hydroxypropylcellulose) (HPC)
[16] = endpoint: mean survival time, dose: 200.0 mg/kg/injection, schedule: Q04DX003 (ip), vehicle: Klucel (hydroxypropylcellulose) (HPC)
[17] = endpoint: mean survival time, dose: 400.0 mg/kg/injection, schedule: Q04DX003 (ip), vehicle: Klucel (hydroxypropylcellulose) (HPC)
[18] = endpoint: mean survival time, dose: 400.0 mg/kg/injection, schedule: Q01DX009 (ip), vehicle: Klucel (hydroxypropylcellulose) (HPC)

Measured: T/C

CC1C/C(=C\NC(N)=O)C(=O)O1 (centres undefined)
inactive: [1] 96 % of control | [2] 94 % of control | [3] 100 % of control | [4] 89 % of control | endpoint: mean survival time, dose: 400.0 mg/kg/injection, schedule: Q01DX009 (ip), vehicle: water 102 % of control | [5] 96 % of control

N#Cc1nccnc1C#N
inactive: endpoint: mean survival time, dose: 25.0 mg/kg/injection, schedule: Q04DX002 (ip), vehicle: DMSO 96 % of control | endpoint: mean survival time, dose: 50.0 mg/kg/injection, schedule: Q04DX002 (ip), vehicle: DMSO 100 % of control | endpoint: mean survival time, dose: 100.0 mg/kg/injection, schedule: Q04DX002 (ip), vehicle: DMSO 100 % of control

COc1ccc(NC(=O)OCCN(CCOC(=O)Nc2ccc(OC)cc2)Cc2ccccc2)cc1
inactive: [6] 94 % of control | [7] 96 % of control | [8] 100 % of control

C=CC1(O)CCCC1
inactive: endpoint: mean survival time, dose: 50.0 mg/kg/injection, schedule: Q01DX009 (ip), vehicle: saline with Tween-80 100 % of control | endpoint: mean survival time, dose: 100.0 mg/kg/injection, schedule: Q01DX009 (ip), vehicle: saline with Tween-80 107 % of control | endpoint: mean survival time, dose: 200.0 mg/kg/injection, schedule: Q01DX009 (ip), vehicle: saline with Tween-80 96 % of control

Cc1cc(C)c(/C=N/O)c(C)c1
inactive: endpoint: mean survival time, dose: 50.0 mg/kg/injection, schedule: Q01DX009 (ip), vehicle: acetone 93 % of control | endpoint: mean survival time, dose: 100.0 mg/kg/injection, schedule: Q01DX009 (ip), vehicle: acetone 87 % of control | [9] 102 % of control | [10] 97 % of control | [11] 100 % of control

COc1cc(O)c2ncccc2c1O
inactive: endpoint: mean survival time, dose: 5.0 mg/kg/injection, schedule: Q01DX001 (ip), vehicle: saline 95 % of control | endpoint: mean survival time, dose: 10.0 mg/kg/injection, schedule: Q01DX001 (ip), vehicle: saline 101 % of control | endpoint: mean survival time, dose: 20.0 mg/kg/injection, schedule: Q01DX001 (ip), vehicle: saline 106 % of control | endpoint: mean survival time, dose: 35.0 mg/kg/injection, schedule: Q01DX001 (ip), vehicle: saline 86 % of control and 91 % of control | endpoint: mean survival time, dose: 40.0 mg/kg/injection, schedule: Q01DX001 (ip), vehicle: saline 103 % of control | [12] 93 % of control and 89 % of control

OC(CCN1CCCC1)(c1ccccc1)C1CCCCC1 (centres undefined)
inactive: endpoint: mean survival time, dose: 6.25 mg/kg/injection, schedule: Q01DX009 (ip), vehicle: Klucel (hydroxypropylcellulose) (HPC) 104 % of control and 108 % of control | endpoint: mean survival time, dose: 12.5 mg/kg/injection, schedule: Q01DX009 (ip), vehicle: Klucel (hydroxypropylcellulose) (HPC) 95 % of control and 97 % of control and 102 % of control | endpoint: mean survival time, dose: 25.0 mg/kg/injection, schedule: Q01DX009 (ip), vehicle: Klucel (hydroxypropylcellulose) (HPC) 103 % of control and 105 % of control | endpoint: mean survival time, dose: 25.0 mg/kg/injection, schedule: Q04DX003 (ip), vehicle: Klucel (hydroxypropylcellulose) (HPC) 111 % of control | endpoint: mean survival time, dose: 50.0 mg/kg/injection, schedule: Q01DX009 (ip), vehicle: Klucel (hydroxypropylcellulose) (HPC) 100 % of control and 106 % of control (2×) | endpoint: mean survival time, dose: 50.0 mg/kg/injection, schedule: Q04DX003 (ip), vehicle: Klucel (hydroxypropylcellulose) (HPC) 101 % of control | [13] 103 % of control and 91 % of control | [14] 92 % of control | endpoint: median survival time, dose: 12.5 mg/kg/injection, schedule: Q01DX009 (ip), vehicle: Klucel (hydroxypropylcellulose) (HPC) 96 % of control | endpoint: median survival time, dose: 25.0 mg/kg/injection, schedule: Q01DX009 (ip), vehicle: Klucel (hydroxypropylcellulose) (HPC) 106 % of control | endpoint: median survival time, dose: 50.0 mg/kg/injection, schedule: Q01DX009 (ip), vehicle: Klucel (hydroxypropylcellulose) (HPC) 103 % of control | endpoint: median survival time, dose: 100.0 mg/kg/injection, schedule: Q01DX009 (ip), vehicle: Klucel (hydroxypropylcellulose) (HPC) 102 % of control

CCCC1CC=CCC12C(=O)NC(=O)NC2=O (centres undefined)
inactive: [6] 103 % of control | [7] 97 % of control | [8] 97 % of control

CSc1ncc(CO)c(N2CC2)n1
inactive: endpoint: mean survival time, dose: 100.0 mg/kg/injection, schedule: Q01DX Z (ip), vehicle: methylcellulose (MC) 87 % of control

Cc1ccc(C)c(NC(=O)Oc2ccccc2F)c1
inactive: [13] 101 % of control | [14] 98 % of control | [15] 91 % of control | [16] 113 % of control | [17] 101 % of control

COC(=O)c1ccccc1N=NNc1ccccc1-c1nc(N)nc(N)n1
inactive: [13] 95 % of control | [14] 103 % of control | [15] 104 % of control | [16] 106 % of control | [18] 98 % of control | [17] 95 % of control

CC(C)CCCC(C)C1CCC2C3CC=C4CC(O)CCC4(C)C3CCC12C (centres undefined) (tested in a mixture with another compound)
inactive: endpoint: mean survival time, dose: 50.0 mg/kg/injection, schedule: Q01DX009 (ip), vehicle: water 94 % of control | endpoint: mean survival time, dose: 100.0 mg/kg/injection, schedule: Q01DX001 (ip), vehicle: water 102 % of control and 108 % of control | [1] 102 % of control | [2] 90 % of control | endpoint: mean survival time, dose: 200.0 mg/kg/injection, schedule: Q01DX001 (ip), vehicle: water 105 % of control | [3] 103 % of control | [4] 88 % of control | endpoint: mean survival time, dose: 400.0 mg/kg/injection, schedule: Q01DX001 (ip), vehicle: water 105 % of control | [5] 87 % of control

OC(C=S)CS (centres undefined)
inactive: endpoint: mean survival time, dose: 100.0 mg/kg/injection, schedule: Q04DX002 (ip), vehicle: saline with Tween-80 95 % of control | endpoint: mean survival time, dose: 200.0 mg/kg/injection, schedule: Q04DX002 (ip), vehicle: saline with Tween-80 92 % of control | endpoint: mean survival time, dose: 400.0 mg/kg/injection, schedule: Q04DX002 (ip), vehicle: saline with Tween-80 95 % of control

Oc1ccc2ccc3[nH]cnc3c2c1
inactive: [13] 101 % of control | [14] 95 % of control | [15] 104 % of control | [16] 95 % of control | [18] 97 % of control | [17] 94 % of control

O=C(Nc1cc(C(F)(F)F)ccc1Cl)OCC(F)(F)F
inactive: [13] 97 % of control and 104 % of control | endpoint: mean survival time, dose: 100.0 mg/kg/injection, schedule: Q04DX002 (ip), vehicle: Klucel (hydroxypropylcellulose) (HPC) 108 % of control and 91 % of control | [15] 105 % of control and 112 % of control | endpoint: mean survival time, dose: 200.0 mg/kg/injection, schedule: Q04DX002 (ip), vehicle: Klucel (hydroxypropylcellulose) (HPC) 103 % of control and 104 % of control | [18] 94 % of control and 108 % of control | endpoint: mean survival time, dose: 400.0 mg/kg/injection, schedule: Q04DX002 (ip), vehicle: Klucel (hydroxypropylcellulose) (HPC) 103 % of control and 107 % of control

CN1CCN(Cc2cc(C(C)(C)C)cc(-c3ccccc3)c2O)CC1
inactive: [9] 92 % of control | [10] 102 % of control | [11] 110 % of control

O=C(O)CNC(=O)c1ccccc1C(=O)NCC(=O)OCc1ccccc1
inactive: [12] 94 % of control | [6] 91 % of control | [7] 91 % of control | [8] 97 % of control
